Data on six compounds can be found in ChEMBL document CHEMBL3880397, “Glucopyranosyloxypyrazole derivatives and use thereof in medicines” (2004).

In general, bioavailability refers to the share of a dose that reaches the circulation, judged against a reference dose that is usually intravenous.

The nature of data set [1]: Oral bioavailability in Sprague-Dawley rat at 10 mg/kg after 15 to 240 mins by HPLC method. Conditions: in vivo. It is filed as ADME, organism-based.
Data set [2] in a line: Toxicity in ICR mouse assessed as induction of mouse mortality by measuring death incidence at 2000 mg/kg, po measured up to 24 hrs post dose. Conditions: in vivo. It is filed as organism-based.
For data set [3], the system named is Rattus norvegicus. Put plainly: Reduction in urinary glucose excretion in overnight fasted Sprague-Dawley rat assessed as urinary glucose concentration per 200 g of body weight per 24 hours at 10 /kg, po. It is filed as functional.
The subject of data set [4] is Rattus norvegicus. Put plainly: Reduction in urinary glucose excretion in overnight fasted Sprague-Dawley rat assessed as urinary glucose concentration per 200 g of body weight per 24 hours at 1 mg/kg, po. It is filed as functional.
Data set [5] deals with Rattus norvegicus. Put plainly: Reduction in urinary glucose excretion in overnight fasted Sprague-Dawley rat assessed as urinary glucose concentration per 200 g of body weight per 24 hours at 3 mg/kg, po. It is filed as functional.
Data set [6] in a line: Oral bioavailability in Sprague-Dawley rat at 10 mg/kg after 15 to 240 mins by LC-MS/MS method. It is filed as ADME, organism-based. The note with it: in vivo.

Regarding `CSc1ccc(Cc2c(O[C@@H]3O[C@H](CO)[C@@H](O)[C@H](O)[C@H]3O)n[nH]c2C(F)(F)F)cc1`, the bioavailability in data set [1] is 11%. Besides, the Activity result in data set [2] is reported as “Non-Toxic”.

Regarding `COC(=O)OC[C@H]1O[C@@H](Oc2nn(C(C)C)c(C)c2Cc2ccc(OC(C)C)cc2)[C@H](O)[C@@H](O)[C@@H]1O`, the results for the Activity with Rattus norvegicus [3], with Rattus norvegicus [4] and with Rattus norvegicus [5] were 167.3 mg, 1.7 mg and 36.8 mg, respectively. Further, the bioavailability in data set [6] is 27%.

The compound `Cc1c(Cc2ccc(OC(C)C)cc2)c(O[C@@H]2O[C@H](COC(=O)OCC(C)C)[C@@H](O)[C@H](O)[C@H]2O)nn1C(C)C` had a bioavailability in data set [6] of 32%.

On to `CCOC(=O)OC[C@H]1O[C@@H](Oc2nn(C(C)C)c(C)c2Cc2ccc(OC(C)C)cc2)[C@H](O)[C@@H](O)[C@@H]1O` [REMOGLIFLOZIN ETABONATE], for which the results for the Activity with Rattus norvegicus [3], in the data set on Rattus norvegicus [4] and with Rattus norvegicus [5] were 127.5 mg, 1.6 mg and 28.3 mg, respectively. The bioavailability in data set [6] worked out at 27%.

In data set [1], `Cc1[nH]nc(O[C@@H]2O[C@H](CO)[C@@H](O)[C@H](O)[C@H]2O)c1Cc1ccc(OC(C)C)cc1` displayed a bioavailability of 0%.

For `Cc1[nH]nc(O[C@@H]2O[C@H](CO)[C@@H](O)[C@H](O)[C@H]2O)c1Cc1ccc(C(C)C)cc1`, the bioavailability in data set [1] was 15%.
